Legend:
Assay type in all cases: cell-based, human
HeLa cells [1] = experiment: Phosphatidylserine translocation (Annexin V-FITC/PI), HeLa; conditions: 72 h
Description: (§1) One of the early indicators of apoptosis is the exposure of phosphatidylserine residues on the cell’s surface. Annexin V has a high affinity to phosphatidylserine and, as a conjugate to fluorescein isothiocyante (FITC), is widely used for detection of early apoptotic cells using flow cytometry. Detection of late-apoptotic or necrotic cells is achieved by using propidium iodide (PI) stain. Based on the obtained fluorescence, four subpopulations were found: PI-low/FITC-low (live cells), PI-high/FITC-low (necrotic cells), PI-low/FITC-high (early apoptotic cells), and PI-high/FITC-high (late apoptotic cells).
(§2) Analysis was performed using FITC-conjugated annexin-V (Annexin V-FITC Apoptosis Kit I, BD Biosciences, San Jose, CA, USA) according to the manufacturer’s instructions (BD Biosciences) as described previously. HeLa, MCF-7, and HCT-116, after seeding to 24-well plates (5 × 10^4/per well) and 24 h incubation, were treated for 72 h with 24 or 31 (10/25 µM or 25 µM concentration respectively). Following treatment, cells were washed in PBS, centrifuged, and then resuspended in a binding buffer. Afterward, the cells were incubated for 15 min at 37 °C with FITC-conjugated annexin-V and propidium iodide. The samples were then analyzed using a LSR II flow cytometer (BD Biosciences) using 530 ± 25 nm (Annexin V-FITC) and 575 ± 26 nm (PI).
(§3) The subpopulations were identified according to their fluorescence: PI-low/FITC-low (live cells), PI-high/FITC-low (necrotic cells), PI-low/FITC-high (early apoptotic cells), and PI-high/FITC-high (late apoptotic cells).

MCF-7 (breast cancer) = experiment: MTT cell viability assay, MCF-7
Description: (§4) The cytotoxic activity of the compounds 8–33 has been evaluated in MTT assays against three human cancer cell lines MCF-7 (breast cancer), HeLa (cervical cancer), and HCT-116 (colon cancer) and it was expressed as IC50 values in μM (Table 1).
All chemicals, if not stated otherwise, were obtained from Sigma-Aldrich (St. Louis, MO, USA). The MCF-7 cell line was purchased from Cell Lines Services (Eppelheim, Germany), the HeLa and HCT-116 cell lines were obtained from the Department of Microbiology, Tumor and Cell Biology, Karolinska Institute (Stockholm, Sweden). Cells were cultured in Dulbecco’s modified Eagle’s medium (DMEM) supplemented with 10% fetal bovine serum, 2 mM glutamine, 100 units/mL penicillin, and 100 μg/mL streptomycin. Cultures were maintained in a humidified atmosphere with 5% CO2 at 37 °C in an incubator (HeraCell, Heraeus, Langenselbold, Germany).
(§5) Cell viability was determined using the MTT (3-(4,5-dimethylthiazol-2-yl)-2,5-diphenyl-tetrazoliumbromide) assay. Stock solutions of the studied compounds were prepared in 100% DMSO. […] Cells were seeded in 96-well plates at a density of 5 × 10^3 cells/well and treated for 72 h with the examined compounds in the concentration range 1–100 μM (1, 10, 25, 50, and 100 μM). Following treatment, MTT (0.5 mg/mL) was added to the medium and cells were further incubated for 2 h at 37 °C. Cells were lysed with DMSO and the absorbance of the formazan solution was measured at 550 nm with a plate reader (1420 multilabel counter, Victor, Jügesheim, Germany). […] The experiment was performed in triplicate. Values are expressed as the mean ± SD of at least three independent experiments.

HCT-116 cells [2] = experiment: Mitochondrial membrane potential (JC-1, flow cytometry), HCT-116; conditions: HCT-116, 72 h, 24 at 10 or 25 μM, 31 at 25 μM
Description: (§6) A decrease in mitochondrial potential is one of the earliest hallmarks of apoptosis. A common method for indication of cells with high and low Δψm is flow cytometry combined with specific fluorescent probes, such as JC-1 (5,5′,6,6′-tetrachloro-1,1′,3,3′-tetraethylbenzimidazolylcarbocyanine iodide). JC-1 accumulates in mitochondria and forms complexes (J aggregates) with red fluorescence in healthy cells with a normal ΔΨm, whereas in apoptotic cells with a low ΔΨm exists as a monomer with green fluorescence.
(§7) Analyzed cells were seeded into wells of a 24-well plate at a density of 5 × 10^4 cells in 1000 µL, incubated overnight, and then the medium was exchanged for dilutions of reagents 24 and 31. Before the end of 72 h of incubation, MitoProbe JC-1 (25 µM) was added into each plate well. Carbonyl cyanide m-chlorophenylhydrazone CCCP (200 nM) as the mitochondrial oxidative phosphorylation uncoupler was added into the positive control 15 min before JC-1 was added. After 30 min of JC-1 staining, cells were washed with PBS and then trypsinized (Corning® 25-053CI). Cells suspended in PBS were analyzed by flow cytometry at λ excitation (ex) = 488 nm and λ emission (em) = 525/570 nm (LSR II BD Biosciences, San Jose, CA, USA).

HCT-116 cells [3] = experiment: Cell cycle distribution by flow cytometry, HCT-116; conditions: for cells in sub-G1 phase: 72 h, control 1.15%
Method: (§8) The cell cycle distribution was measured by flow cytometry analysis after incubation of MCF-7, HeLa, and HCT-116 with compounds 24 and 31 for 72 h.

HeLa cells [4] = experiment: Mitochondrial membrane potential (JC-1, flow cytometry), HeLa; conditions: 72 h, 24 at 10 or 25 μM, 31 at 25 μM
Description: as §6, §7

[5] = system: MCF-7, HeLa and HCT-116 cells; experiment: MTT assay, mean over three tested cancer cell lines
Method: as §4
Although the highest activity of the compounds with hydroxyl groups as the R^2 residue was against colon cancer cells, the inhibition of the growth of breast cancer cells was also remarkable.
as §5

HCT-116 cells [6] = experiment: Phosphatidylserine translocation (Annexin V-FITC/PI), HCT-116
Description: as §1, §2, §3

HeLa cells [7] = experiment: Cell cycle distribution by flow cytometry, HeLa; conditions: 72 h; for cells in sub-G1 phase: control 5.08%
Method: as §8

For Cc1cc(S(=O)(=O)NC(N)=NN=C(C=Cc2ccccc2O)c2ccccc2)c(SCc2ccccc2Cl)cc1Cl [Compound 24, 3-{4-chloro-2-[(2-chlorophenyl)methylthio]-5-methylbenzenesulfonyl}-2-[3-(2-hydroxyphenyl)-1-phenylprop-2-enylideneamino]guanidine], the “level of late apoptotic cells (Annexin V-FITC/PI)” value (HeLa cells [1]; 25 μM) was “significantly increased level of late apoptotic cells”, the “population of apoptotic cells (Annexin V-FITC/PI)” value (HeLa cells [1]; 24 at 10 or 25 μM, 31 at 25 μM) was “increased population of apoptotic cells” and the IC50 (MCF-7 (breast cancer); Homo sapiens, MCF7, MTT, 72 h) was 12 ± 0.6 µM. For the same compound, the “Selectivity Index MCF-7/HaCaT” value (MCF-7 (breast cancer); MCF-7 versus HaCaT, from IC50 values) was 2.7, the “change of mitochondrial membrane potential (ΔΨm)” value (HCT-116 cells [2]) was “remarkable decrease in ΔΨm” and the “cells in sub-G1 phase” value (HCT-116 cells [3]; HCT-116, 10 μM) was 49.69%. For the same compound, the “cells in sub-G1 phase” value (HCT-116 cells [3]; HCT-116, 25 μM) was 65.31%, the “effect on cell cycle distribution” value (HCT-116 cells [3]; HCT-116, 72 h, 24 at 10 and 25 μM, 31 at 25 μM) was “significant increase in the cell distribution in the sub-G1 phase” and the “change of mitochondrial membrane potential (ΔΨm)” value (HeLa cells [4]) was “remarkable decrease in ΔΨm”. For the same compound, the “selectivity ratio, mean IC50 against cancer cells versus IC50 for HaCaT” value ([5]; HaCaT versus mean of three cancer cell lines) was 2.6, the IC50 ([5]; Homo sapiens, mean of MCF-7, HeLa, HCT-116, MTT, 72 h, read-out: mean IC50 against three tested cell lines) was 12.7 µM and the “induction of apoptosis (Annexin V-FITC/PI)” value (HCT-116 cells [6]; HCT-116, 10 μM, 72 h) was “Induction of apoptosis”. For the same compound, the “population of apoptotic cells (Annexin V-FITC/PI)” value (HCT-116 cells [6]; HCT-116, 72 h, 24 at 10 or 25 μM, 31 at 25 μM) was “increased population of apoptotic cells”, the “cells in sub-G1 phase” value (HeLa cells [7]; 10 μM) was 7.45% and the “cells in sub-G1 phase” value (HeLa cells [7]; 25 μM) was 18.07%. For the same compound, the “effect on cell cycle distribution” value (HeLa cells [7]; 24 at 10 and 25 μM, 31 at 25 μM) was “significant increase in the cell distribution in the sub-G1 phase”.

— paper PMC10002375, “Synthesis of 3-(2-Alkylthio-4-chloro-5-methylbenzenesulfonyl)-2-(1-phenyl-3-arylprop-2-enylideneamino)guanidine Derivatives with Pro-Apoptotic Activity against Cancer Cells” (International Journal of Molecular Sciences, 2023)
